Drawing on patent publication US9045466B2, “Amidine compound or salt thereof” (priority 2011, dated 2015), this text covers MIC for 28 molecules.

Structures are written as SMILES. Values after ≈ are worked out from the molar mass of the structure shown. Where a name gives a salt, the structure may show the parent alone. Read-outs that look alike come from different tables or passages of the source.

The assay relates to Trichophyton rubrum NBRC 5467. Briefly: Fungal susceptibility test, broth microdilution method (MIC). The note with it: NBRC5467, 96 h. The class given is cell-based. As to the method:
The fungal susceptibility tests on test substances were conducted by the broth microdilution method equivalent to Clinical and Laboratory Standards Institute method. The medium used in the susceptibility tests was RPMI1640 adjusted to pH 7.0 with 0.165 mol/L morpholinepropanesulfonic acid (MOPS) and 50% sodium hydroxide (RPMI/MOPS). Each test substance was dissolved in DMSO and serially diluted in 2-fold increments with DMSO on a 96-well microplate. Then, the dilutions were dispensed by 1 μL to a 96-well microplate. Candida albicans TIMM 1623 cultured overnight at 35° C. in Sabouraud's agar medium was suspended in sterile saline. The number of cells was counted under a biological microscope, and the fungal suspension was diluted with RPMI/MOPS to prepare the inoculum solution (approximately 1×10^3 cells/mL). Alternatively, Candida albicans TIMM 1623 stored at −80° C. was diluted with RPMI/MOPS to prepare the inoculum solution (approximately 1×10^3 CFU/mL). Aspergillus fumigatus TIMM 0063 stored at 5° C. was diluted with RPMI/MOPS to prepare the inoculum solution (approximately 1×10^4 CFU/mL). Trichophyton rubrum NBRC 5467 stored at 5° C. or −80° C. was diluted with RPMI/MOPS to prepare the inoculum solution (approximately 2×10^3 CFU/mL). The 199 μL of inoculum solution was dispensed to each well to prepare the microplate containing the designated concentrations of test substance, medium and fungal cells. Candida albicans and Aspergillus fumigatus were cultured at 35° C. for 2 days. Trichophyton rubrum was cultured at 35° C. for 4 days. After the completion of culture, MIC was determined by visual observation. The MICs of Candida albicans and Aspergillus fumigatus were set to the lowest concentration at which approximately 50% growth inhibition was seen, when compared with a growth control without the addition of the test substance. The MIC of Trichophyton rubrum was set to the lowest concentration at which approximately 80% growth inhibition was seen, when compared with a growth control without the addition of the test substance.
In general terms: Broth dilution looks for growth in wells or tubes with falling amounts of substance.

[1] abbreviates: pH 7, read-out: MIC (μg/mL) T. rubrum NBRC5467.
Setting [2] is: RPMI/MOPS pH 7.0, 35° C. for 4 days, visual, lowest concentration with approximately 80% growth inhibition, read-out: MIC (μg/mL) T. rubrum NBRC5467.

For the molecule `CCN(C)/C=N/c1cc(C)c(Cc2nc(C(=O)c3ccccc3)cs2)cc1C` [Example 19, N′-(2,5-Dimethyl-4-{[4-(phenylcarbonyl)-1,3-thiazol-2-yl]methyl}phenyl)-N-ethyl-N-methylimidoformamide dihydrochloride], under setting [1], the MIC worked out at 0.0156 µg/mL. `CCN(C)/C=N/c1cc(C)c(Cc2nc(C(O)c3ccc(Cl)cc3)cs2)cc1C` (stereo not shown) [Example 38, N′-[4-({4-[(4-Chlorophenyl)(hydroxy)methyl]-1,3-thiazol-2-yl}methyl)-2,5-dimethylphenyl]-N-ethyl-N-methylimidoformamide]: under setting [2], the MIC was 0.0078 µg/mL (≈ 0.0182 µM). Same read-out and setting: with `CN/C=N/c1cc(C)c(Cc2nc(-c3ccc(C(=O)NC)cc3)cs2)cc1C` [Example 95, 4-[2-(2,5-Dimethyl-4-{[(E)-(methylamino)methylidene]amino}benzyl)-1,3-thiazol-4-yl]-N-methylbenzamide] the figure was 0.125 µg/mL (≈ 0.318 µM); with `CCN(C)/C=N/c1cc(C)c(Cc2nc(C(=O)NC3CCCC3)cs2)cc1C` [Example 74, N-Cyclopentyl-2-[4-({(E)-[ethyl(methyl)amino]methylidene}amino)-2,5-dimethylbenzyl]-1,3-thiazole-4-carboxamide], 0.0156 µg/mL (≈ 0.0391 µM).

`CCN(C)/C=N/c1cc(C)c(Cc2nc(C3CCOCC3)cs2)cc1C` [Example 81, N′-(2,5-Dimethyl-4-{[4-(tetrahydro-2H-pyran-4-yl)-1,3-thiazol-2-yl]methyl}phenyl)-N-ethyl-N-methylimidoformamide]: the MIC under setting [2] came to 0.0156 µg/mL (≈ 0.042 µM). On the same count and under the same terms, with `CCN(C)/C=N/c1cc(C)c(Cc2nc(C(=O)NC(C)(C)CC)cs2)cc1C` [Example 86, 2-[4-({(E)-[Ethyl(methyl)amino]methylidene}amino)-2,5-dimethylbenzyl]-N-(2-methylbutan-2-yl)-1,3-thiazole-4-carboxamide] the figure was 0.0039 µg/mL (≈ 0.00974 µM). For `CCN(C)/C=N/c1cc(C)c(Cc2nc(C3CC3)cs2)cc1C` [Example 45, N′-{4-[(4-Cyclopropyl-1,3-thiazol-2-yl)methyl]-2,5-dimethylphenyl}-N-ethyl-N-methylimidoformamide dihydrochloride], under setting [1], the MIC stood at 0.0313 µg/mL. Take `CCN(C)/C=N/c1cc(C)c(Cc2nc(-c3ccc(C(=O)NC(C)C)cc3)cs2)cc1C` [Example 98, 4-{2-[4-({(E)-[Ethyl(methyl)amino]methylidene}amino)-2,5-dimethylbenzyl]-1,3-thiazol-4-yl}-N-(propan-2-yl)benzamide]: the MIC under setting [2] is 0.0156 µg/mL (≈ 0.0348 µM). `CCN/C=N/c1cc(C)c(Cc2nc(-c3cnc(C)cn3)cs2)cc1C` [Example 105, N′-(2,5-Dimethyl-4-{[4-(5-methylpyrazin-2-yl)-1,3-thiazol-2-yl]methyl}phenyl)-N-ethylimidoformamide hydrochloride]: the MIC under setting [1] is 0.0313 µg/mL. As to `CCN(C)/C=N/c1cc(C)c(Cc2nc(-c3ccn(C)c(=O)c3)cs2)cc1C` [Example 67, N′-(2,5-Dimethyl-4-{[4-(1-methyl-2-oxo-1,2-dihydropyridin-4-yl)-1,3-thiazol-2-yl]methyl}phenyl)-N-ethyl-N-methylimidoformamide dihydrochloride], under setting [1], the MIC worked out at 0.0625 µg/mL. In the case of `CCN(C)/C=N/c1cc(C)c(Cc2nc(C(=O)NC3CCC(F)(F)CC3)cs2)cc1C` [Example 96, N-(4,4-Difluorocyclohexyl)-2-[4-({(E)-[ethyl(methyl)amino]methylidene}amino)-2,5-dimethylbenzyl]-1,3-thiazole-4-carboxamide hydrochloride], the MIC under setting [1] was 0.0313 µg/mL.

In the case of `CCN(C)/C=N/c1cc(C)c(Cc2nc(-c3cnc(C)cn3)cs2)cc1C` [Example 37, N′-(2,5-Dimethyl-4-{[4-(5-methylpyrazin-2-yl)-1,3-thiazol-2-yl]methyl}phenyl)-N-ethyl-N-methylimidoformamide dihydrochloride], the MIC under setting [1] amounted to 0.0039 µg/mL.

As for `CCN(C)/C=N/c1cc(C)c(Cc2nc(NC(=O)OC(C)C)cs2)cc1C` [Example 102, Propan-2-yl {2-[4-({(E)-[ethyl(methyl)amino]methylidene}amino)-2,5-dimethylbenzyl]-1,3-thiazol-4-yl}carbamate], the MIC under setting [2] came out at 0.0078 µg/mL (≈ 0.0201 µM). Same read-out and setting: then `CCN(C)/C=N/c1cc(C)c(Cc2nc(C3CCC(C(=O)NC)CC3)cs2)cc1C` (stereo not shown) [Example 87, 4-{2-[4-({(E)-[Ethyl(methyl)amino]methylidene}amino)-2,5-dimethylbenzyl]-1,3-thiazol-4-yl}-N-methylcyclohexanecarboxamide], with 0.0156 µg/mL (≈ 0.0366 µM). In the case of `CCN(C)/C=N/c1cc(C)c(Cc2nc(-c3cncc(F)c3)cs2)cc1C` [Example 21, N-Ethyl-N′-(4-{[4-(5-fluoropyridin-3-yl)-1,3-thiazol-2-yl]methyl}-2,5-dimethylphenyl)-N-methylimidoformamide trihydrochloride], the MIC under setting [1] came to 0.0156 µg/mL. Consider `CCN(C)/C=N/c1cc(C)c(Cc2nc(OC(C)C)cs2)cc1C` [Example 32, N′-(2,5-Dimethyl-4-{[4-(propan-2-yloxy)-1,3-thiazol-2-yl]methyl}phenyl)-N-ethyl-N-methylimidoformamide], for which, under setting [2], the MIC turned out to be 0.0039 µg/mL (≈ 0.0113 µM).

Regarding `CCN(C)/C=N/c1cc(C)c(Cc2nc(-c3ccccc3)c(C(=O)c3ccccc3)s2)cc1C` [Example 25, N′-(2,5-Dimethyl-4-{[4-phenyl-5-(phenylcarbonyl)-1,3-thiazol-2-yl]methyl}phenyl)-N-ethyl-N-methylimidoformamide dihydrochloride], the MIC under setting [1] is 0.0313 µg/mL. Still for that read-out and setting: then `CCN(C)/C=N/c1cc(C)c(Cc2nc(COC(C)C)cs2)cc1C` [Example 63, N′-[2,5-Dimethyl-4-({4-[(propan-2-yloxy)methyl]-1,3-thiazol-2-yl}methyl)phenyl]-N-ethyl-N-methylimidoformamide dihydrochloride], with 0.0156 µg/mL. In the case of `CCN(C)/C=N/c1cc(C)c(Cc2nc(-c3ccc(S(C)(=O)=O)cc3)cs2)cc1C` [Example 23, N′-[2,5-Dimethyl-4-{4-[4-(methylsulfonyl)phenyl]-1,3-thiazol-2-yl}methyl)phenyl]-N-ethyl-N-methylimidoformamide dihydrochloride], the MIC under setting [2] is 0.0039 µg/mL. In the case of `CCN(C)/C=N/c1cc(C)c(Cc2nc(NC(=O)OC3CCCCC3)cs2)cc1C` [Example 97, Cyclohexyl {2-[4-({(E)-[ethyl(methyl)amino]methylidene}amino)-2,5-dimethylbenzyl]-1,3-thiazol-4-yl}carbamate hydrochloride], the MIC under setting [1] worked out at 0.0078 µg/mL. `CCN(C)/C=N/c1ccc(Cc2nc(-c3ccc(Cl)cc3)cs2)cc1` [Example 51, N′-(4-{[4-(4-Chlorophenyl)-1,3-thiazol-2-yl]methyl}phenyl)-N-ethyl-N-methylimidoformamide hydrochloride]: the MIC under setting [1] came out at 0.25 µg/mL. With `CCOC(=O)c1csc(Cc2cc(C)c(/N=C/N(C)CC)cc2C)n1` [Example 35, Ethyl 2-[4-({(E)-[ethyl(methyl)amino]methylidene}amino)-2,5-dimethylbenzyl]-1,3-thiazole-4-carboxylate], the MIC under setting [1] was found to be 0.0313 µg/mL (≈ 0.0871 µM).

`CCN(C)/C=N/c1cc(C)c(Cc2nc(-c3ccc4c(c3)CNC4=O)cs2)cc1C` [Example 89, N′-(2,5-Dimethyl-4-{[4-(1-oxo-2,3-dihydro-1H-isoindol-5-yl)-1,3-thiazol-2-yl]methyl}phenyl)-N-ethyl-N-methylimidoformamide]: under setting [2], the MIC is 0.0625 µg/mL (≈ 0.149 µM). On the same count and under the same terms, then `CCN(C)/C=N/c1cc(C)c(Cc2nc(-c3ccc(C(=O)NC)cc3)cs2)cc1C` [Example 41, 4-{2-[4-({(E)-[Ethyl(methyl)amino]methylidene}amino)-2,5-dimethylbenzyl]-1,3-thiazol-4-yl}-N-methylbenzamide], with 0.0078 µg/mL (≈ 0.0185 µM).

With `CCN(C)/C=N/c1cc(C)c(Cc2nc(C(=O)N(C)C3CCCCC3)cs2)cc1C` [Example 71, N-Cyclohexyl-2-[4-({(E)-[ethyl(methyl)amino]methylidene}amino)-2,5-dimethylbenzyl]-N-methyl-1,3-thiazole-4-carboxamide hydrochloride], the MIC under setting [1] turned out to be 0.0156 µg/mL.

With `CCN(C)/C=N/c1cc(C)c(Cc2nc(-c3ccc(C)cc3)cs2)nc1C` [Example 47, N′-(2,5-Dimethyl-6-{[4-(4-methylphenyl)-1,3-thiazol-2-yl]methyl}pyridin-3-yl)-N-ethyl-N-methylimidoformamide dihydrochloride], the MIC under setting [1] was found to be 0.0313 µg/mL. Still for that read-out and setting: then `CCN(C)/C=N/c1cc(C)c(Cc2nc(COC(C)=O)cs2)cc1C` [Example 34, {2-[4-({(E)-[Ethyl(methyl)amino]methylidene}amino)-2,5-dimethylbenzyl]-1,3-thiazol-4-yl}methyl acetate dihydrochloride], with 0.0313 µg/mL; and `CCN(C)/C=N/c1cc(C)c(Cc2nc(C(=O)NCc3ccccc3)cs2)cc1C` [Example 44, N-Benzyl-2-[4-({(E)-[ethyl(methyl)amino]methylidene}amino)-2,5-dimethylbenzyl]-1,3-thiazole-4-carboxamide dihydrochloride], with 0.0625 µg/mL.
